Reference: paper PMC4286194 (Biochemical Journal, 2015)

How the values were obtained:
[1] = test system: Bone-marrow-derived macrophages; assay: IL-10 secretion (BIOPLEX) in LPS-stimulated macrophages; format: cell-based, mouse; settings: for EC50: Mus musculus, Macrophage, read-out: EC50 for elevation of IL-10 secretion; for IL-10 production at optimal dose: dasatinib 300 nM, bosutinib 3 μM, HG-9-91-01 500 nM, LPS-stimulated
Experimental: The concentration of TNFα, IL-6, IL-10 and IL-12p40 in cell-free culture supernatants were measured using the Bio-Plex Pro Assay system (Bio-Rad).

DDR2 = biological target: T1, DDR2 (Homo sapiens, UniProt Q16832); assay: Kinase profiling; format: biochemical
T1 sequence (Q16832 22-855): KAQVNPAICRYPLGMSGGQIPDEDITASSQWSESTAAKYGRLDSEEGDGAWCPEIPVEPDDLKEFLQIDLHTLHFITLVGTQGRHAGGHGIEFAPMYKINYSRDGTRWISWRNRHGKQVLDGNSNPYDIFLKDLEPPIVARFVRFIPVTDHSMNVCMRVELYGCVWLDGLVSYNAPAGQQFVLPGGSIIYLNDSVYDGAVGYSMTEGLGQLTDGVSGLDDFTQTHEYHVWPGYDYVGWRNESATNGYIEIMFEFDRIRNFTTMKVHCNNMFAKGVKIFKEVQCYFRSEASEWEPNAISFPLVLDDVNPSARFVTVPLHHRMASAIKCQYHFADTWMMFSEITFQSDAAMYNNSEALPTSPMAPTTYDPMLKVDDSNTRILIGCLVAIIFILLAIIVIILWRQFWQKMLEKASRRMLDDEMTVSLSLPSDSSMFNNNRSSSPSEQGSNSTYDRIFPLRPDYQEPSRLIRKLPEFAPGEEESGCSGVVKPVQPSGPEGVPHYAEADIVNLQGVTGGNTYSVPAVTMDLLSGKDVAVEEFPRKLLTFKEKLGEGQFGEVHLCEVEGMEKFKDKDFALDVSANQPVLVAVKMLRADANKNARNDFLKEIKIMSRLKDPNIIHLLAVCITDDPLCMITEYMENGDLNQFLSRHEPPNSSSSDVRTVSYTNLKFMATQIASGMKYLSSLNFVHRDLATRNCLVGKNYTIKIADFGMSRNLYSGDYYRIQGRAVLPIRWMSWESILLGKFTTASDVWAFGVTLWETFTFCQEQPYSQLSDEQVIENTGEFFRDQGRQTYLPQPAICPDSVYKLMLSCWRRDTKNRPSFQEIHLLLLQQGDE

JAK2 = JAK2 (Homo sapiens, UniProt O60674); assay: Kinase profiling; format: biochemical
p38 gamma MAPK = biological target: T2, p38 gamma MAPK (Homo sapiens, UniProt P53778); assay: Kinase profiling; format: biochemical
T2 sequence (P53778 1-367): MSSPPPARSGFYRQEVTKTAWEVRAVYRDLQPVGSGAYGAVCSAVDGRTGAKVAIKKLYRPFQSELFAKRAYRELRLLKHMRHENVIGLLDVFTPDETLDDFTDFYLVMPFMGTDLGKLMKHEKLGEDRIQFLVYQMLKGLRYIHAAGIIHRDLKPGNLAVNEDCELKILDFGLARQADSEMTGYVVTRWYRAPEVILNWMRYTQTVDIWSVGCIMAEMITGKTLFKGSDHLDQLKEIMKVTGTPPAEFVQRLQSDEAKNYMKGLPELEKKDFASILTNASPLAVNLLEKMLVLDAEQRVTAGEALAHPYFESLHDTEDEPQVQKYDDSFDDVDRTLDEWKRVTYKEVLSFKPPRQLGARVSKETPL

PKC gamma = PKC gamma (Homo sapiens, UniProt P05129); assay: Kinase profiling; format: biochemical
TBK1 = biological target: T3, TBK1 (Homo sapiens, UniProt Q9UHD2); assay: Kinase profiling; format: biochemical
T3 sequence (Q9UHD2 1-729): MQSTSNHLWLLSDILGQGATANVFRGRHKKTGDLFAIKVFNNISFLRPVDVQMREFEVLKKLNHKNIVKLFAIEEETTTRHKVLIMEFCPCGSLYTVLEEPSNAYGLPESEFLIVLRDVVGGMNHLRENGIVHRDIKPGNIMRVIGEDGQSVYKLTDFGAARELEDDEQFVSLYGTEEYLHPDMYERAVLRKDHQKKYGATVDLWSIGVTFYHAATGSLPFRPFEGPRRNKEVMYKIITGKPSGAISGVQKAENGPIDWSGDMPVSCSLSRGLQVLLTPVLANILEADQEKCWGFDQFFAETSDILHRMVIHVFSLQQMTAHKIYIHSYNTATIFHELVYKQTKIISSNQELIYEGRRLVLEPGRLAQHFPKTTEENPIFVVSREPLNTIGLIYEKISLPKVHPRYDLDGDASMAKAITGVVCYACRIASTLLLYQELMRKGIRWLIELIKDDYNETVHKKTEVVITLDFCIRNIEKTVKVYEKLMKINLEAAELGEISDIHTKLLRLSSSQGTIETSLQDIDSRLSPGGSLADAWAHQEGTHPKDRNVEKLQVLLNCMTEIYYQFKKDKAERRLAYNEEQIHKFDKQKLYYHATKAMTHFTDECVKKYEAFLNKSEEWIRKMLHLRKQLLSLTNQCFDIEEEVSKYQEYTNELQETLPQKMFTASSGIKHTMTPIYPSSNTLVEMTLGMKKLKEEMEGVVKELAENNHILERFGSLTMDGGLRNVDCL

TESK1 = TESK1 (Homo sapiens, UniProt Q15569); assay: Kinase profiling; format: biochemical
Chain of TESK1 (Q15569 whole entry): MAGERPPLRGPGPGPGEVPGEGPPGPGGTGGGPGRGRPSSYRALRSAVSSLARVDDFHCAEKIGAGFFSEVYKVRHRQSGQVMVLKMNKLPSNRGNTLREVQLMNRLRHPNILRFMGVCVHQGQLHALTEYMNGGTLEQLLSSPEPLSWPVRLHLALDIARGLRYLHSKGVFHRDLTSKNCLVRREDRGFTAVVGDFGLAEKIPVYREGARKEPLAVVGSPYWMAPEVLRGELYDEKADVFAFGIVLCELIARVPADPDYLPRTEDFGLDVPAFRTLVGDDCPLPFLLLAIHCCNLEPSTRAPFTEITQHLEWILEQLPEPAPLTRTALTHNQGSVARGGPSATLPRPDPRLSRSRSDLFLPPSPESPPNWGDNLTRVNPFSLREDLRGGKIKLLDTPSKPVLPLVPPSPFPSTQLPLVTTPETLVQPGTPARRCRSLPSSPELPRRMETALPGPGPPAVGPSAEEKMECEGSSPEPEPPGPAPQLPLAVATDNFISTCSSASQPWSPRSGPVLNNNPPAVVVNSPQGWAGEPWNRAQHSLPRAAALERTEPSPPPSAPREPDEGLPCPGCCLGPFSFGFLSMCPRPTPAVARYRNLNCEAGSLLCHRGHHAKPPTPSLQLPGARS

Chain of JAK2 (O60674 whole entry): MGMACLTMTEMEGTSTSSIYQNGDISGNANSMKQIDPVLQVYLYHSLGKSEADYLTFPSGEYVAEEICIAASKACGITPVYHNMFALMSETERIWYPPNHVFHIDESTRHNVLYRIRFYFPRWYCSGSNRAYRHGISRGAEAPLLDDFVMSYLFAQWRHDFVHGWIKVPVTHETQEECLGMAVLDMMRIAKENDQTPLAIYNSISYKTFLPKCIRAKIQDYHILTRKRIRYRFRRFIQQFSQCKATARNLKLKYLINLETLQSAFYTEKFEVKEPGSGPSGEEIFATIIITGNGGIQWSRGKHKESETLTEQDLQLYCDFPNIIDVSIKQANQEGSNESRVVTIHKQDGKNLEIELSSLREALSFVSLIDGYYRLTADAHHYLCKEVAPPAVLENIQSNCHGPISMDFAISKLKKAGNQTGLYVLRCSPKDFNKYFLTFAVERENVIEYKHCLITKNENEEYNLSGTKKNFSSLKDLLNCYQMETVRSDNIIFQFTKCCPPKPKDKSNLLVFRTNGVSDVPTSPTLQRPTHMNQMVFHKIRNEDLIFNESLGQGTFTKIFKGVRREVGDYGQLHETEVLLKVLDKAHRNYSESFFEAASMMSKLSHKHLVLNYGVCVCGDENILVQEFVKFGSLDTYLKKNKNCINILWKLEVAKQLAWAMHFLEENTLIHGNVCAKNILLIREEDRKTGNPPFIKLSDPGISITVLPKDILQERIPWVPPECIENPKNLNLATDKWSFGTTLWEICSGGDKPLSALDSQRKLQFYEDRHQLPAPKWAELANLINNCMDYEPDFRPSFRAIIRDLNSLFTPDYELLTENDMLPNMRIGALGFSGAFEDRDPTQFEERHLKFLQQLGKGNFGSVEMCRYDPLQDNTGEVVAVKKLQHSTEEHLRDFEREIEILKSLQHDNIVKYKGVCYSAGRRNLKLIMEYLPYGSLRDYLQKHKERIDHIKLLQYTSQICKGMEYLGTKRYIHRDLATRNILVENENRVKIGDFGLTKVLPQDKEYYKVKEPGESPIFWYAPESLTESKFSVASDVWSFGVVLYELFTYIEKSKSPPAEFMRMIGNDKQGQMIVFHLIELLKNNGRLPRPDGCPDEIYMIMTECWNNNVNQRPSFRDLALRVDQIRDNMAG

Compound	EC50 [1] [nM]	IL-10 production at optimal dose [1]	remaining activity at 0.1 µM (DDR2) [%]	remaining activity at 1 µM (DDR2) [%]	remaining activity at 0.1 µM (JAK2) [%]	remaining activity at 1 µM (JAK2) [%]	remaining activity at 0.1 µM (p38 gamma MAPK) [%]	remaining activity at 0.1 µM (PKC gamma) [%]	remaining activity at 1 µM (PKC gamma) [%]	remaining activity at 0.1 µM (TBK1) [%]	remaining activity at 1 µM (TBK1) [%]	remaining activity at 0.1 µM (TESK1) [%]	remaining activity at 1 µM (TESK1) [%]	remaining activity at 1 µM (p38 gamma MAPK; 1 µM) [%]
COc1cc(Nc2c(C#N)cnc3cc(OCCCN4CCN(C)CC4)c(OC)cc23)c(Cl)cc1Cl [Bosutinib, bosutinib]	510	induced IL-10 production to similar levels as HG-9-91-01	22 ± 1	2	72 ± 5	26	88 ± 3	88 ± 6	102 ± 5	75 ± 1	29 ± 1	82 ± 15	61 ± 2	
Cc1nc(Nc2ncc(C(=O)Nc3c(C)cccc3Cl)s2)cc(N2CCN(CCO)CC2)n1 [Dasatinib]	110	induced IL-10 production to similar levels as HG-9-91-01	1 ± 1	0	94 ± 2	42 ± 1	100 ± 4	107 ± 22	114 ± 22	100 ± 1	97 ± 10	50 ± 3	8	105 ± 7
